Laboratory results reported in patent US8877944B2, “3-oxo-2,3-dihydro-1H-isoindole-4-carboxamides as PARP inhibitors” (Nerviano Medical Sciences S.R.L., priority 2009, dated 2014).
Like-named read-outs stand apart in the source and are kept apart here.

Tests used:
PARP-3 FL = PARP-3 FL (Homo sapiens (Human), UniProt Q9Y6F1); assay: Fluorescence polarization probe displacement assay, PARP-3; format: binding; conditions: half maximal displacement concentration
Protocol: (§1) Affinity evaluation of the tested compounds and their selectivity with respect to the different PARP isoforms of interest was assessed in a displacement assay.
(§2) The polarization signal can be measured, e.g., by a plate reader such as the Saphire2 (Tecan). The displacement ability of the test compound is in correlation with the compound affinity for the NAD pocket of the enzyme.
(§3) The assay performances were then evaluated (Z′ factor) as well as the displacement of the probe by its scaffold and known commercially available PARP inhibitors. In all of the experiments, the polarization signal was measured using a Saphire2 plate reader (Tecan). Data analysis was performed using Dynafit software. In particular, titration data were fitted to the following equilibria: Enzyme+probe <==> Complex Enzyme-probe, while displacement data were fitted to the following equilibria: Enzyme+probe <==> Complex Enzyme-probe, Enzyme+Compound <==> Complex Enzyme-Compound, whereby binding of probe and compound on the enzyme are mutually exclusive (pure competitive mechanism). Displacement data were also fitted using Excell spreadsheet (Microsoft Inc. Seattle, USA) to a four parameter logistic model (4PL), or Hill-Slope model to calculate DC50s where the DC50 value represents the compound concentration at which the polarization signal is diminished by 50% compared to untreated controls.
(§4) KD values, are the average of three independent experiments.

[1] = system: Capan-1 human pancreatic cancer tumors; assay: In vivo efficacy, single agent, Capan-1 BRCA-2 mutated mouse model
Protocol: Fragments of Capan-1 human pancreatic cancer tumors were implanted subcutaneously. Mice bearing a palpable tumor (100-200 mm^3) were selected and randomized into control and treated groups. Each group included seven animals. The treatment started one day after randomization. Compound of formula (I) was administered by oral route as a methocel suspension at the indicated doses and times. Tumor dimension was measured regularly by calipers during the experiments and tumor mass was calculated as described in Simeoni M. et al., Cancer Res 64, 1094-1101 (2004).

[2] = system: PAR formation in HeLa cells; assay: Cellular PAR assay: inhibition of hydrogen peroxide induced PAR formation; conditions: Homo sapiens, read-out: PAR assay IC50
Protocol: Compounds potencies were evaluated by measuring the inhibition of poly (ADP-ribose) (PAR) chains formation as a marker for PARP-1 inhibition.
Cellular activity of PARP-1 inhibitors was assessed by measuring the inhibition of the hydrogen peroxide induced PAR formation in HeLa cells (ECACC). Cellular PAR levels were measured by immunocytochemistry, and quantified using an ArrayScan vTi instrument (Cellomics Thermo Scientific).
Test compounds were then added at the required concentration for 30′. […] Concentration curves were prepared in MEM/10% FCS from compound stocks in DMSO, and final DMSO concentration was 0.002% (v/v). Duplicate wells for each concentration point were prepared with a typical highest compound concentration of 20 μM and serial dilution 1:3. […] Non-specific binding sites were blocked by incubating wells for 30 min in PBS containing 5% (w/v) FBS 0.05% tween20. […] After washing further 3 times in PBS, cellular PAR immunoreactivity was assessed using the ArrayScan vTi instrument, with a Zeiss 10×0.5 N.A. objective, and applying the Cytotoxicity.V3 algorithm (Cellomics/Thermo Fisher) with a XF100 filter. At least 10 fields, corresponding to at least 900 cells, were read for each well.
The following formula is used: IC50=Bottom+(Top-Bottom)/(1+10^((LogEC50−X))); X is the logarithm of concentration. IC50 is the response; IC50 starts at Bottom and goes to Top with a sigmoid shape.

PARP-2 FL = PARP-2 FL (Homo sapiens (Human), UniProt Q9UGN5); assay: Fluorescence polarization probe displacement assay, PARP-2; format: binding
Protocol: as §1, §2, §3, §4

PARP-1 FL = PARP-1 FL (Homo sapiens (Human), UniProt P09874); assay: Fluorescence polarization probe displacement assay, PARP-1; format: binding; conditions: for DC50: half maximal displacement concentration
Protocol: as §1, §2, §3, §4

[3] = Pharmacokinetics and oral bioavailability in the mouse; conditions: for C-max (oral): 10 mg/kg single oral dose, mean value; for F on AUC / Vd / clearance / AUC / half-life: 10 mg/kg; for F on AUC: oral vs IV dose-normalized AUC; for Vd / clearance / AUC / half-life: male, Balb Nu/Nu, plasma; for Vd / clearance: iv; for AUC / half-life: po
Protocol: The compounds were formulated in 10% tween 80/dextrose for intravenous bolus administration while oral administrations were performed using the compounds formulated in 0.5% methylcellulose. A single administration at the dose of 10 mg/kg was given and three male animals for each route were used. […] Plasma samples were prepared by plasma proteins precipitation adding 200 μL of methanol to 10 μL of plasma in a 96 well plate. […] The supernatant was considered as final extract and injected onto the LC-MS-MS system (HPLC system: Hewlett Packard 1100 series using Atlantis HILIC Silica 50*2.1 mm 5.0 μm analytical column; MS instrument: Perkin Elmer SCIEX API 2000 and ionization performed with Turbo Ion Spray in positive ion mode). Lower limit of quantification is 5.0 ng/mL, upper limit of quantification is 10000 ng/mL. […] Non-compartmental method (linear trapezoidal rule and linear regression analysis of natural log-transformed plasma concentrations vs. time data) was used. After intravenous dosing, C0 was set equal to C0.083 Absolute bioavailability (F) was calculated from the ratio of average oral to IV (intravenous) dose-normalized plasma AUC (area under curve) values.

[4] = system: ovarian cancer with confirmed BRCA-1 mutations; conditions: ovarian cancer patients with confirmed BRCA-1 mutations, monotherapy; cited from earlier work
[5] = 100 mg/kg oral, days 1-6 twice a day
[6] = half maximal displacement concentration; read-out: PARP-2 DC50
[7] = compound P3 as the probe, 100 nM PARP-1
[8] = read-out: PARP-2 DC50; half maximal displacement concentration
[9] = 100 mg/kg oral, days 1-14 daily
[10] = compound P1 as the probe, 250 nM PARP-1
[11] = 100 mg/kg oral, days 1-15 daily

Sequence of PARP-3 FL (Q9Y6F1 whole entry): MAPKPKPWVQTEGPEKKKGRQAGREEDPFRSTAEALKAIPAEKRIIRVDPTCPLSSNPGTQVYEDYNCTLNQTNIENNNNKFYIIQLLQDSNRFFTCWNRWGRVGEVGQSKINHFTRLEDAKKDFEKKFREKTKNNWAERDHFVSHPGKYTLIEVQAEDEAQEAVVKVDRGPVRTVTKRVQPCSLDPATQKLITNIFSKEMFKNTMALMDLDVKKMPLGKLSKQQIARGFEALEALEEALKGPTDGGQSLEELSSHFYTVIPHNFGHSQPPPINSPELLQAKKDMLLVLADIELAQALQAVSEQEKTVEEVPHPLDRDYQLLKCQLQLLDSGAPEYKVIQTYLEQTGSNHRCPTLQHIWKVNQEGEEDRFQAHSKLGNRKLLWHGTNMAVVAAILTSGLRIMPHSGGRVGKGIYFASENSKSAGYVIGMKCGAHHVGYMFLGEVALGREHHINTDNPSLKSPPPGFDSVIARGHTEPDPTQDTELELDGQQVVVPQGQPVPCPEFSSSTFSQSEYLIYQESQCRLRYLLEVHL
Sequence of PARP-2 FL (Q9UGN5 whole entry): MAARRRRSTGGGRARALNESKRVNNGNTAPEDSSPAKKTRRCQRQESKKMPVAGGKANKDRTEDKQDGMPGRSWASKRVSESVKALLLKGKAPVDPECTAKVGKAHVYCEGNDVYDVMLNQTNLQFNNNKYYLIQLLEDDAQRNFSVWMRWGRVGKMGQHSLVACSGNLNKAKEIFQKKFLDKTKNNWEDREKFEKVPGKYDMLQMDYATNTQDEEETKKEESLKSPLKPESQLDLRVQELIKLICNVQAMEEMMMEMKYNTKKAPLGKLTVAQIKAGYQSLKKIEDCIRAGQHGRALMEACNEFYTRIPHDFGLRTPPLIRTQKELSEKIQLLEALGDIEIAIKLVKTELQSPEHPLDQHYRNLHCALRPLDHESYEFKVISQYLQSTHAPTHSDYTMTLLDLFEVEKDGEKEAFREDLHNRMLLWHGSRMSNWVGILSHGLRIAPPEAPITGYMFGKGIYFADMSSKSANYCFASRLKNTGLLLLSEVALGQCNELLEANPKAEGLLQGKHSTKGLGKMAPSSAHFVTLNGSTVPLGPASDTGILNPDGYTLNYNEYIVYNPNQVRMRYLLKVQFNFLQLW
Sequence of PARP-1 FL (P09874 whole entry): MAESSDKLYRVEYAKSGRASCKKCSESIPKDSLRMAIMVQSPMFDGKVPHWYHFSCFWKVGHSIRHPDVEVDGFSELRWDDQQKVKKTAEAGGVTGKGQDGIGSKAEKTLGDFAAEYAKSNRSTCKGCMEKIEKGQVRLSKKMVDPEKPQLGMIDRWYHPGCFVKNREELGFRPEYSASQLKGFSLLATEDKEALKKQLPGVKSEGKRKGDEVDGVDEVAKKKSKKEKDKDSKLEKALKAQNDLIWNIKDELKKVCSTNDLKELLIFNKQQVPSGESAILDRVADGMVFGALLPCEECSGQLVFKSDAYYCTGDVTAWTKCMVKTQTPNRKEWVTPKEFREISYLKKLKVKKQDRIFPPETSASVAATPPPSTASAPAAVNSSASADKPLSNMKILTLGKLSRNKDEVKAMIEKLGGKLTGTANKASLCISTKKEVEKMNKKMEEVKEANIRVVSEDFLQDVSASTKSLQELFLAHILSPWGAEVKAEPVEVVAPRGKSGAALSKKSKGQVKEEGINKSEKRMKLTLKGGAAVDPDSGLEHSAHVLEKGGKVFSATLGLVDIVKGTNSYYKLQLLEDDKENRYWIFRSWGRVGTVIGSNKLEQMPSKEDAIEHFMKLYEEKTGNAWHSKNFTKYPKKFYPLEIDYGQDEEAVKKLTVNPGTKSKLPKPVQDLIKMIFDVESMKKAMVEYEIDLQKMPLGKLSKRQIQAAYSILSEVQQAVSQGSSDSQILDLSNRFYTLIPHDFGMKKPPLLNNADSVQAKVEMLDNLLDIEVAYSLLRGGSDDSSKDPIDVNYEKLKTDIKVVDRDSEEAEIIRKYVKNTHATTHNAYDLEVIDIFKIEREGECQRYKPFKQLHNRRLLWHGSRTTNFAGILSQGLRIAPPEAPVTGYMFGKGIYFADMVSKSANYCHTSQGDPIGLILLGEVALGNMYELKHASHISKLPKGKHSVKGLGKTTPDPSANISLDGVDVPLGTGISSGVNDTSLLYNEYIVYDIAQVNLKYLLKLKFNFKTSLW

IC50 [2]	DC50 (PARP-1 FL)	DC50 (PARP-2 FL; [8])	Compound	DC50 (PARP-3 FL)	Kd (PARP-1 FL; [7])	AUC [3]	other results
–	–	–	O=C(c1cc(Cc2n[nH]c(=O)c3ccccc23)ccc1F)N1CCN(C(=O)C2CC2)CC1 [AZD2281]	–	–	–	partial responses [4]: 4 out of 10
160 nM	< 250 nM	> 10000 nM	CO[C@H]1CC[C@H](N2CCC(N3Cc4cccc(C(N)=O)c4C3=O)CC2)CC1 [Compound 2, 2-[1-(Trans-4-methoxycyclohexyl)piperidin-4-yl]-3-oxo-2,3-dihydro-1H-isoindole-4-carboxamide]	6000 nM	25 nM	–	–
–	–	–	NC(=O)c1cccc2c1C(=O)N(C1CCN(C3CCC(F)(F)CC3)CC1)C2 [Compound 7, 2-[1-(4,4-Difluorocyclohexyl)-piperidin-4-yl]-3-oxo-2,3-dihydro-1H-isoindole-4-carboxylic acid amide]	3540 nM	–	–	Max TGI (%) ([1]; 80 mg/kg oral, days 1-8 daily): 47%; Toxicity (body weight reduction, mice out of 7) ([1]; 80 mg/kg oral, days 1-8 daily): 0/7
–	–	–	NC(=O)c1cccc2c1C(=O)N(C1CCN(Cc3ccc4[nH]ccc4c3)CC1)C2 [Compound 29, 2-[1-(1H-indol-5-ylmethyl)piperidin-4-yl]-3-oxo-2,3-dihydro-1H-isoindole-4-carboxamide]	–	–	–	Max TGI (%) [1, 9]: 38%; Toxicity (body weight reduction, mice out of 7) [1, 9]: 0/7
390 nM	< 250 nM	> 10000 nM	CO[C@H]1CC[C@@H](N2CCC(N3Cc4cccc(C(N)=O)c4C3=O)CC2)CC1 [Compound 1, 2-[1-(Cis-4-methoxycyclohexyl)piperidin-4-yl]-3-oxo-2,3-dihydro-1H-isoindole-4-carboxamide]	3700 nM	60 nM	–	–
410 nM	280 nM	> 10000 nM	COCCN1CCC(N2Cc3cccc(C(N)=O)c3C2=O)CC1 [Compound 106, 2-[1-(2-Methoxyethyl)piperidin-4-yl]-3-oxo-2,3-dihydro-1H-isoindole-4-carboxamide]	2550 nM	–	–	Kd (PARP-1 FL; [10]): 110 nM
530 nM	280 nM	> 10000 nM	NC(=O)c1cccc2c1C(=O)N(C1CCN(C3CCC4(CC3)OCCO4)CC1)C2 [Compound 8, 2-[1-(1,4-Dioxaspiro[4.5]dec-8-yl)piperidin-4-yl]-3-oxo-2,3-dihydro-1H-isoindole-4-carboxamide]	> 10000 nM	–	–	Kd (PARP-1 FL; [10]): 130 nM
–	–	–	NC(=O)c1cc(F)cc2c1C(=O)N(C1CCN(C3CCC(F)(F)CC3)CC1)C2 [Compound 99, 2-[1-(4,4-Difluorocyclohexyl)-piperidin-4-yl]-6-fluoro-3-oxo-2,3-dihydro-1H-isoindole-4-carboxamide]	1580 nM	–	19.6 µM·h	Max TGI (%) [1, 11]: 55%; Toxicity (body weight reduction, mice out of 7) [1, 11]: 0/7

Compound	IC50 [2]	DC50 (PARP-1 FL)	DC50 (PARP-2 FL; [8])	DC50 (PARP-3 FL)	Kd (PARP-1 FL; [7])	AUC [3]	other results
CC(C)n1cc(CN2CCC(N3Cc4cccc(C(N)=O)c4C3=O)CC2)c2ccccc21 [Compound 32, 3-oxo-2-(1-{[1-(propan-2-yl)-1H-indol-3-yl]methyl}piperidin-4-yl)-2,3-dihydro-1H-isoindole-4-carboxamide]	380 nM	< 250 nM	–	270 nM	40 nM	1.48 µM·h	Max TGI (%) [1, 5]: 32%; Toxicity (body weight reduction, mice out of 7) [1, 5]: 0/7; DC50 (PARP-2 FL; [6]): > 10000 nM; C-max (oral) [3]: 0.43 µM; F on AUC [3]: 24%; Vd [3]: 2.78 L/kg; clearance [3]: 59.5 mL/min/kg; half-life [3]: 1.84 h
NC(=O)c1cccc2c1C(=O)N(C1CCN([C@H]3CC[C@@H](CO)CC3)CC1)C2 [Compound 3, 2-{1-[Cis-4-(hydroxymethyl)cyclohexyl]piperidin-4-yl}-3-oxo-2,3-dihydro-1H-isoindole-4-carboxamide]	140 nM	< 250 nM	–	2300 nM	13 nM	2.39 µM·h	DC50 (PARP-2 FL; [6]): > 10000 nM; C-max (oral) [3]: 1.17 µM; F on AUC [3]: 82.5%; Vd [3]: 4.75 L/kg; clearance [3]: 104 mL/min/kg; half-life [3]: 1.75 h
NC(=O)c1cccc2c1C(=O)N(C1CCN([C@H]3CC[C@H](CO)CC3)CC1)C2 [Compound 4, 2-{1-[Trans-4-(hydroxymethyl)cyclohexyl]piperidin-4-yl}-3-oxo-2,3-dihydro-1H-isoindole-4-carboxamide]	90 nM	< 250 nM	–	4900 nM	20 nM	1.3 µM·h	DC50 (PARP-2 FL; [6]): > 10000 nM; C-max (oral) [3]: 0.4 µM; F on AUC [3]: 55%; Vd [3]: 5.95 L/kg; clearance [3]: 135 mL/min/kg; half-life [3]: 1.42 h
